From PubChem BioAssay (NCI)
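Step 1: Grow cells in 96-well plates. Step 2: Expose to compound for 48 hours at 5 concentrations. Step 3: Interpolate endpoints linearly; if unreached, use highest concentration. GI50 marks 50% less growth. Definition used: TGI = concentration required for complete inhibition of growth.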

Assays:
Test in all cases: growth of human tumour cells (NCI), 48 h
786-0 renal = tested on: 786-0 renal
A498 renal = tested on: A498 renal
A549 NSCLC = tested on: A549 NSCLC
ACHN renal = tested on: ACHN renal
BT-549 breast = tested on: BT-549 breast
CAKI-1 renal = tested on: CAKI-1 renal
CCRF-CEM leukemia = tested on: CCRF-CEM leukemia
COLO 205 colon = tested on: COLO 205 colon
DU-145 prostate = tested on: DU-145 prostate
EKVX NSCLC = tested on: EKVX NSCLC
HCC-2998 colon = tested on: HCC-2998 colon
HCT-116 colon = tested on: HCT-116 colon
HCT-15 colon = tested on: HCT-15 colon
HL-60(TB) leukemia = tested on: HL-60(TB) leukemia
HOP-62 NSCLC = tested on: HOP-62 NSCLC
HOP-92 NSCLC = tested on: HOP-92 NSCLC
HS 578T breast = tested on: HS 578T breast
HT29 colon = tested on: HT29 colon
IGROV1 ovarian = tested on: IGROV1 ovarian
K-562 leukemia = tested on: K-562 leukemia
KM12 colon = tested on: KM12 colon
LOX IMVI melanoma = tested on: LOX IMVI melanoma
M14 melanoma = tested on: M14 melanoma
MALME-3M melanoma = tested on: MALME-3M melanoma
MCF7 breast = tested on: MCF7 breast
MDA-MB-231 breast = tested on: MDA-MB-231 breast
MDA-MB-435 = tested on: MDA-MB-435
MDA-MB-468 breast = tested on: MDA-MB-468 breast
MOLT-4 leukemia = tested on: MOLT-4 leukemia
NCI-H226 lung = tested on: NCI-H226 lung
NCI-H23 lung = tested on: NCI-H23 lung
NCI-H460 lung = tested on: NCI-H460 lung
NCI-H522 lung = tested on: NCI-H522 lung
NCI/ADR-RES ovarian = tested on: NCI/ADR-RES ovarian
OVCAR-3 ovarian = tested on: OVCAR-3 ovarian
OVCAR-4 ovarian = tested on: OVCAR-4 ovarian
OVCAR-5 ovarian = tested on: OVCAR-5 ovarian
OVCAR-8 ovarian = tested on: OVCAR-8 ovarian
PC-3 prostate = tested on: PC-3 prostate
RPMI-8226 leukemia = tested on: RPMI-8226 leukemia
RXF 393 renal = tested on: RXF 393 renal
SF-268 CNS = tested on: SF-268 CNS
SF-295 CNS = tested on: SF-295 CNS
SF-539 CNS = tested on: SF-539 CNS
SK-MEL-2 melanoma = tested on: SK-MEL-2 melanoma
SK-MEL-28 melanoma = tested on: SK-MEL-28 melanoma
SK-MEL-5 melanoma = tested on: SK-MEL-5 melanoma
SK-OV-3 ovarian = tested on: SK-OV-3 ovarian
SN12C renal = tested on: SN12C renal
SNB-19 CNS = tested on: SNB-19 CNS
SNB-75 CNS = tested on: SNB-75 CNS
SW-620 colon = tested on: SW-620 colon
T-47D breast = tested on: T-47D breast
TK-10 renal = tested on: TK-10 renal
U251 CNS = tested on: U251 CNS
UACC-257 melanoma = tested on: UACC-257 melanoma
UACC-62 melanoma = tested on: UACC-62 melanoma
UO-31 renal = tested on: UO-31 renal

With `COc1ccc2c(c1)c(/C=N/Nc1ccc3ccccc3n1)cn2C` the GI50 (786-0 renal) was 15.3 µM, the TGI (786-0 renal) was 31.6 µM and the GI50 (A498 renal) was 17.4 µM. It also gave a TGI (A498 renal) of 33 µM, a GI50 (A549 NSCLC) of 9.48 µM and a TGI (A549 NSCLC) of 28.7 µM. The GI50 (ACHN renal) was 7.38 µM, the TGI (ACHN renal) was 21.4 µM and the GI50 (BT-549 breast) was 15.2 µM. It also gave a TGI (BT-549 breast) of 30.2 µM, a GI50 (CAKI-1 renal) of 5.95 µM and a TGI (CAKI-1 renal) of 21.3 µM. It also gave a GI50 (CCRF-CEM leukemia) of 5.52 µM, a TGI (CCRF-CEM leukemia) of 86.7 µM and a GI50 (COLO 205 colon) of 15.9 µM. For the same compound, the TGI (COLO 205 colon) was 39.2 µM, the GI50 (DU-145 prostate) was 12.3 µM and the TGI (DU-145 prostate) was 25.5 µM. The GI50 (EKVX NSCLC) was 2.3 µM, the TGI (EKVX NSCLC) was 19.4 µM and the GI50 (HCC-2998 colon) was 3.69 µM. It also gave a TGI (HCC-2998 colon) of 15.4 µM, a GI50 (HCT-116 colon) of 8.18 µM and a TGI (HCT-116 colon) of 26.5 µM. The GI50 (HCT-15 colon) was 3.4 µM, the TGI (HCT-15 colon) was 13.3 µM and the GI50 (HL-60(TB) leukemia) was 10.4 µM. The TGI (HL-60(TB) leukemia) was 41.7 µM, the GI50 (HOP-62 NSCLC) was 11.3 µM and the TGI (HOP-62 NSCLC) was 44.9 µM. The GI50 (HOP-92 NSCLC) was 1.58 µM, the TGI (HOP-92 NSCLC) was 11.5 µM and the GI50 (HS 578T breast) was 13 µM. For the same compound, the TGI (HS 578T breast) was 33.3 µM, the GI50 (HT29 colon) was 5.46 µM and the TGI (HT29 colon) was 23.1 µM. The GI50 (IGROV1 ovarian) was 10.8 µM, the TGI (IGROV1 ovarian) was 26.5 µM and the GI50 (K-562 leukemia) was 3.36 µM. It also gave a TGI (K-562 leukemia) greater than 100 µM, a GI50 (KM12 colon) of 5.47 µM and a TGI (KM12 colon) of 21.9 µM. For the same compound, the GI50 (LOX IMVI melanoma) was 1.97 µM, the TGI (LOX IMVI melanoma) was 5.27 µM and the GI50 (M14 melanoma) was 13.4 µM. For the same compound, the TGI (M14 melanoma) was 30.1 µM, the GI50 (MALME-3M melanoma) was 18.6 µM and the TGI (MALME-3M melanoma) was 38.7 µM. For the same compound, the GI50 (MCF7 breast) was 4.45 µM, the TGI (MCF7 breast) was 24.2 µM and the GI50 (MDA-MB-231 breast) was 4.36 µM. It also gave a TGI (MDA-MB-231 breast) of 19 µM, a GI50 (MDA-MB-435) of 8.41 µM and a TGI (MDA-MB-435) of 23.1 µM. The GI50 (MDA-MB-468 breast) was 3.91 µM, the TGI (MDA-MB-468 breast) was 16.1 µM and the GI50 (MOLT-4 leukemia) was 6.5 µM. It also gave a TGI (MOLT-4 leukemia) of 39.1 µM, a GI50 (NCI-H226 lung) of 7.95 µM and a TGI (NCI-H226 lung) of 29.6 µM. It also gave a GI50 (NCI-H23 lung) of 11.8 µM, a TGI (NCI-H23 lung) of 28.4 µM and a GI50 (NCI-H460 lung) of 7.8 µM. The TGI (NCI-H460 lung) was 30 µM, the GI50 (NCI-H522 lung) was 14 µM and the TGI (NCI-H522 lung) was 39 µM. The GI50 (NCI/ADR-RES ovarian) was 10.4 µM, the TGI (NCI/ADR-RES ovarian) was 30.3 µM and the GI50 (OVCAR-3 ovarian) was 13.9 µM. The TGI (OVCAR-3 ovarian) was 31.4 µM, the GI50 (OVCAR-4 ovarian) was 13.2 µM and the TGI (OVCAR-4 ovarian) was 33.3 µM. For the same compound, the GI50 (OVCAR-5 ovarian) was 11.9 µM, the TGI (OVCAR-5 ovarian) was 24.7 µM and the GI50 (OVCAR-8 ovarian) was 14.7 µM. For the same compound, the TGI (OVCAR-8 ovarian) was 35.7 µM, the GI50 (PC-3 prostate) was 8.25 µM and the TGI (PC-3 prostate) was 23.9 µM. For the same compound, the GI50 (RPMI-8226 leukemia) was 7.83 µM, the TGI (RPMI-8226 leukemia) was 42.9 µM and the GI50 (RXF 393 renal) was 5.03 µM. It also gave a TGI (RXF 393 renal) of 19.1 µM, a GI50 (SF-268 CNS) of 14.3 µM and a TGI (SF-268 CNS) of 31.3 µM. For the same compound, the GI50 (SF-295 CNS) was 11.2 µM, the TGI (SF-295 CNS) was 24.4 µM and the GI50 (SF-539 CNS) was 10.3 µM. For the same compound, the TGI (SF-539 CNS) was 22.2 µM, the GI50 (SK-MEL-2 melanoma) was 16.8 µM and the TGI (SK-MEL-2 melanoma) was 35.1 µM. For the same compound, the GI50 (SK-MEL-28 melanoma) was 14.9 µM, the TGI (SK-MEL-28 melanoma) was 30.3 µM and the GI50 (SK-MEL-5 melanoma) was 10.4 µM. For the same compound, the TGI (SK-MEL-5 melanoma) was 22.7 µM, the GI50 (SK-OV-3 ovarian) was 16.3 µM and the TGI (SK-OV-3 ovarian) was 36.5 µM. The GI50 (SN12C renal) was 7.61 µM, the TGI (SN12C renal) was 22.5 µM and the GI50 (SNB-19 CNS) was 15.8 µM. For the same compound, the TGI (SNB-19 CNS) was 32.4 µM, the GI50 (SNB-75 CNS) was 4.97 µM and the TGI (SNB-75 CNS) was 22.2 µM. It also gave a GI50 (SW-620 colon) of 7.46 µM, a TGI (SW-620 colon) of 35.2 µM and a GI50 (T-47D breast) of 8.62 µM. The TGI (T-47D breast) was 36.5 µM, the GI50 (TK-10 renal) was 22.5 µM and the TGI (TK-10 renal) was 39 µM. The GI50 (U251 CNS) was 13.3 µM, the TGI (U251 CNS) was 32.9 µM and the GI50 (UACC-257 melanoma) was 15.4 µM. For the same compound, the TGI (UACC-257 melanoma) was 30.2 µM, the GI50 (UACC-62 melanoma) was 12.7 µM and the TGI (UACC-62 melanoma) was 26.8 µM. The GI50 (UO-31 renal) was 1.68 µM and the TGI (UO-31 renal) was 13.4 µM.
